Values quoted from earlier work in patent EP2517696A1, “Extended release memantine tablet” (Ali Raif Ilaç Sanayi ve Ticaret Anonim Sirketi, priority 2011, dated 2012).
Where a name gives a salt, the structure may show the parent alone.

Key:
[1] = in vivo
[2] = high dissolution and permeability

absolute bioavailability [1]: 100%
BCS class [2]: BCS 1 class
SMILES: CC12CC3CC(C)(C1)CC(N)(C3)C2 [Memantine HCl, 3,5 dimethyl-1-adamantamine hydrochloride]
